The record followed here is patent publication US10562869B2, “Oxadiazole compounds” (REMYND NV, priority 2014, dated 2020).

In general, EC50 refers to the concentration that produces a half-maximal response.

Molecules are shown by their SMILES.

The test system of assay [1] is INS-1E cells. Description: Cytokine-induced caspase-3/7 activation in INS-1E cells (beta cell stress/apoptosis model, Caspase-Glo 3/7). The class given is cell-based. As to conditions: Rattus norvegicus, cytokine mix (IFN-γ, IL-1β, TNF-α), 24 hours, caspase 3/7 activity, read-out: CYT EC50. The source says:
The INS-1E cell line, a rat insulinoma cell line, has been characterized extensively. INS-1E cells respond to glucose by secreting insulin and, unlike most other immortalized β-cell lines, they do this in a consistent manner over time. The cells are sensitive to hyperglycemia-, free fatty acid (FFA)-, and cytokine-induced stress. Prolonged stress ultimately leads to induction of apoptotic pathways and, if stress is not counter-acted, to apoptosis. Caspase-3 and -7 play a central role downstream where various apoptotic pathways merge. As such, activation (i.e. cleavage) of these caspases forms a relevant primary read-out to evaluate protective activity of compounds against stress-induced apoptosis.
To evaluate the efficacy of different compounds to prevent induction of apoptosis, an in vitro screen was developed in which INS-1E cells were exposed to a cytokine mix (IFN-γ, 5 ng/ml; IL-1β, 20 pg/ml; TNF-α, 0.25 ng/ml). The degree of induction of apoptosis was evaluated using a substrate for cleaved caspase-3 and -7, i.e. a proluminescent caspase-3/7 DEVD aminoluciferin substrate with a thermostable luciferase (Caspase-Glo® 3/7 assay; Promega, cat. G8092).
On day 0, INS-1E cells were plated in a white-walled 96-well microplate (Greiner, cat. 655098) at 20,000 cells per well in 100 μl complete medium (RPMI containing 11 mM glucose supplemented with 5% FCS, 100 IU/ml penicillin, 100 μg/ml streptomycin, 10 mM HEPES, 1 mM Sodium Pyruvate and 50 μM 2-Mercapto-ethanol). On day 2, 100 μl medium containing cytokines and compound dissolved in DMSO was added to the cells. Wells without cytokines containing DMSO and wells with cytokines and DMSO were included to evaluate the degree of caspase 3/7 activation by the cytokine mix. After 24 hours exposure to cytokines and/or compound, Caspase-Glo® 3/7 reagent was added to the cells and caspase activity was determined by measuring luminescence.
To evaluate compound efficacy, the “toxicity window” was calculated by subtracting caspase activity of wells without stressor from activity of wells with stressor but without compound. The amount of caspase activity in the latter wells was normalized to 1 and used as reference. Subsequently, caspase activity in the wells with stressor and varying concentrations of compound was calculated relative to the wells without compound. Plotting caspase activity vs the log 10 of the concentration of compound permitted calculation of the EC50 values for the compounds which typically lied between 0.0001 and 10 μM. Compounds with an EC50<10 μM were considered active.

Assay [2] relates to M17_3SYN cells. Kind of assay: Paraquat-induced cytotoxicity (LDH) in α-synuclein over-expressing M17_3SYN neuroblastoma cells. The class given is cell-based, human. To be noted: Homo sapiens, Neuroblastoma cell, 48 h, toxicity inhibition (LDH) in M17_3SYN cells challenged with 6 mM paraquat, 2 days; read-out: SYN EC50. Put shortly: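 Human BE-M17 neuroblastoma cells stably overexpressing wild-type α-synuclein challenged with paraquat (final 6 mM) for 2 days at 37 °C alongside compounds over a concentration range. Cytotoxicity as LDH released relative to total LDH; EC50 from dose-dependent inhibition curve.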

Assay [3] has as its system M17_3TAU(P301L) cells. Description: Retinoic acid-induced cytotoxicity (LDH) in TAU-P301L expressing M17_3TAU(P301L) neuroblastoma cells. Type of assay: cell-based. As to conditions: Homo sapiens, Neuroblastoma cell, 168 h; toxicity inhibition (LDH) in M17_3TAU(P301L) cells challenged with retinoic acid, 7 days. The text has this: A TAU expression plasmid was constructed by sub-cloning the cDNA encoding for human TAU-P301L protein, wherein proline at position 301 was substituted by a leucine residue, into mammalian expression vector pcDNA3.1 resulting in the plasmid pcDNA3.1-TAUP301L. Plasmid pcDNA3.1-TAU P301L was transfected into human neuroblastoma cells (BE-M17; ATCC No. CRL-2267™) using lipofectamine reagent and subsequently, independent clonal cell lines with the plasmids stably integrated into the genome were selected by antibiotic resistance selection (Geneticin (G418)), resulting in cell line M17_3TAUP301L. Expression of the TAUP301L gene in the M17_3TAUP301L cells was confirmed by Western blot analysis.
M17_3TAU(P301L) cells were treated chronically with retinoic acid (RA) in low serum conditions to induce Alzheimer's disease-like intracellular signaling deregulation leading to increased TAU levels and subsequent cell death. Cytotoxicity of cells was measured by quantification of lactate dehydrogenase (LDH) levels. In dead cells LDH leaked out of the cells into the medium due to a loss of plasma-membrane integrity.
3 days preceding the experiment, a pre-culture of M17_3TAU(P301L) cells was prepared, starting from a stock culture, at a density of 50.000-100.000 cells/cm^2 in culture medium (Optimem Reduced Serum with phenol red (Invitrogen, Cat. 31985-047)) supplemented with 10% fetal calf serum (FCS), 1 mM sodium pyruvate, 1×non-essential amino acids (NEAA), 500 μg/ml G418 and 0.5×(ABAM). At the day of the experiment these precultures were diluted to ˜0.1·10^6 cells/ml in detection medium (Optimem Reduced Serum without phenol red (Gibco, Cat.11058-021) supplemented with 1% fetal calf serum (FCS), 1 mM sodium pyruvate, 1×non-essential amino acids (NEAA), 500 μg/ml G418 and 0.5×ABAM) and 60 μL of this suspension was dispensed per well into a 96-well microtiter plate. After 3 hours of incubation at 37° C./5% CO2 an equal volume of detection medium (without FCS) containing 3.75 μM RA was added and subsequently incubated for 7 days at 37° C./5% CO2. Then LDH activity was determined using the Promega Cytotox 96 Non-Radioactive cytotoxicity assay (Cat. G1780), according to the manufacturer's instructions. Cytotoxicity was defined as the ratio of LDH relative the total LDH in the cells and supernatant.
The assay described above using the M17_3TAU(P301L) cell line allowed to screen compounds for their ability to decrease cytotoxicity in RA-challenged cells. Compounds of the invention were tested for their ability to decrease toxicity at different concentrations, ranging from low non-effective concentrations to high potent concentrations. Afterwards, the dose-dependent inhibition curve was used to calculate their EC50. A compound was considered to be active in this test when it inhibited toxicity by more than 20% relative to untreated M17_3TAU(P301L) cells at a concentration of 10 μM or lower.

On to `CSc1ccc(S(=O)(=O)N2CCN(c3nc(C4C[C@@H]5CC[C@H]4C5)no3)CC2)cc1` (stereo partly drawn) [Cmpd191, 3-((1S,4R)-bicyclo[2.2.1]heptan-2-yl)-5-(4-((4-(methylthio)phenyl)sulfonyl)piperazin-1-yl)-1,2,4-oxadiazole], for which the EC50 worked out at 554 nM in assay [1] and 109 nM in assay [2]. The corresponding values for `O=S(=O)(c1ccc(OC(F)F)cc1)N1CCN(c2nc(C3(c4ccccc4)CC3)no2)CC1` [Cmpd122, 1-(4-Difluoromethoxy-benzenesulfonyl)-4-[3-(1-phenyl-cyclopropyl)-[1,2,4]oxadiazol-5-yl]-piperazine] are 43 nM and 9 nM. The molecule `Cc1cc(Cc2noc(N3CCN(CCc4ccc(Cl)cc4)CC3)n2)ccn1` [Cmpd170, 5-(4-(4-Chlorophenethyl)piperazin-1-yl)-3-((2-methylpyridin-4-yl)methyl)-1,2,4-oxadiazole] gave a concentration giving a half-maximal response (EC50) in assay [3] of 640 nM. The same measure, in the same setting: as for `Clc1ccc(CCN2CCN(c3nc(C4C[C@@H]5CC[C@H]4C5)no3)CC2)cc1` (stereo partly drawn) [Cmpd186, 3-((1S,4R)-bicyclo[2.2.1]heptan-2-yl)-5-(4-(4-chlorophenethyl)piperazin-1-yl)-1,2,4-oxadiazole], the figure is 17 nM. Still for that read-out and setting: for `Cc1ccccc1CN1CCN(c2nc(Cc3ccccc3)no2)CC1` [Cmpd041, 1-(3-Benzyl-[1,2,4]oxadiazol-5-yl)-4-(2-methylbenzyl)-piperazine] the value was 55 nM; for `Fc1cccc(-c2noc(N3CCN(CCc4ccc(Cl)cc4)CC3)n2)c1` [Cmpd031, 5-(4-(4-Chlorophenethyl)piperazin-1-yl)-3-(3-fluorophenyl)-1,2,4-oxadiazole], 31 nM; for `COc1cc(CCN2CCN(c3nc(CCC(F)(F)F)no3)CC2)ccn1` [Cmpd175, 5-(4-(2-(2-Methoxypyridin-4-yl)ethyl)piperazin-1-yl)-3-(3,3,3-trifluoropropyl)-1,2,4-oxadiazole], 105 nM. On the same count and under the same terms, as for `COc1cccc(CCN2CCN(c3nc(CC(F)(F)F)no3)CC2)c1` [Cmpd163, 5-(4-(3-Methoxyphenethyl)piperazin-1-yl)-3-(2,2,2-trifluoroethyl)-1,2,4-oxadiazole], the figure is 418 nM; as for `Clc1ccccc1CN1CCN(c2nc(C3C[C@@H]4CC[C@H]3C4)no2)CC1` (stereo partly drawn) [Cmpd184, 3-((1S,4R)-bicyclo[2.2.1]heptan-2-yl)-5-(4-(2-chlorobenzyl)piperazin-1-yl)-1,2,4-oxadiazole], 135 nM; as for `FC(F)(F)CCc1noc(N2CCN(Cc3ccccc3Cl)CC2)n1` [Cmpd177, 5-(4-(2-Chlorobenzyl)piperazin-1-yl)-3-(3,3,3-trifluoropropyl)-1,2,4-oxadiazole], 172 nM. Take `COc1cccc(CCN2CCN(c3nc(Cc4ccc(Cl)cc4)no3)CC2)c1` [Cmpd056, 1-[3-(4-Chloro-benzyl)-[1,2,4]oxadiazol-5-yl]-4-[2-(3-methoxy-phenyl)-ethyl]-piperazine]: in assay [3], the midpoint of the response, the EC50, lay at 75 nM. Still for that read-out and setting: as for `N#CCCCN1CCN(c2nc(CCC(F)(F)F)no2)CC1` [Cmpd181, 4-(4-(3-(3,3,3-Trifluoropropyl)-1,2,4-oxadiazol-5-yl)piperazin-1-yl)butanenitrile], the figure is 584 nM; as for `FC(F)(F)Cc1noc(N2CCN(CCc3ccc(Cl)cc3)CC2)n1` [Cmpd164, 5-(4-(4-Chlorophenethyl)piperazin-1-yl)-3-(2,2,2-trifluoroethyl)-1,2,4-oxadiazole], 306 nM; as for `Fc1ccc(C2(c3noc(N4CCN(CCc5ccc(Cl)cc5)CC4)n3)CC2)cc1` [Cmpd111, 5-(4-(4-Chlorophenethyl)piperazin-1-yl)-3-(1-(4-fluorophenyl)cyclopropyl)-1,2,4-oxadiazole], 237 nM. Turning to `Cc1ccccc1CN1CCN(c2nc(Cc3ccc(F)c(F)c3)no2)CC1` [Cmpd104, 1-[3-(3,4-Difluoro-benzyl)-[1,2,4]oxadiazol-5-yl]-4-(2-methyl-benzyl)-piperazine], in assay [3], the EC50 came out at 37 nM. For `Clc1cccc(-c2noc(N3CCN(Cc4ccccc4Cl)CC3)n2)c1` [Cmpd027, 5-(4-(2-Chlorobenzyl)piperazin-1-yl)-3-(3-chlorophenyl)-1,2,4-oxadiazole], the EC50 in assay [3] turned out to be 74 nM. `Clc1ccc(CCN2CCN(c3nc(-c4cccc(Cl)c4)no3)CC2)cc1` [Cmpd024, 5-(4-(4-Chlorophenethyl)piperazin-1-yl)-3-(3-chlorophenyl)-1,2,4-oxadiazole] showed an EC50 in assay [3] of 119 nM.

`Fc1ccccc1CN1CCN(c2nc(Cc3ccc(Cl)cc3)no2)CC1` [Cmpd061, 3-(4-Chlorobenzyl)-5-(4-(2-fluorobenzyl)piperazin-1-yl)-1,2,4-oxadiazole] yielded an EC50 in assay [3] of 685 nM. With `Fc1ccc(Cc2noc(N3CCN(CCc4ccc(Cl)cc4)CC3)n2)cc1F` [Cmpd102, 1-[2-(4-Chloro-phenyl)-ethyl]-4-[3-(3,4-difluoro-benzyl)-[1,2,4]oxadiazol-5-yl]-piperazine], the EC50 in assay [3] stood at 17 nM. `COc1cccc(CCN2CCN(c3nc(Cc4ccc(F)c(F)c4)no3)CC2)c1` [Cmpd098, 1-[3-(3,4-Difluoro-benzyl)-[1,2,4]oxadiazol-5-yl]-4-[2-(3-methoxy-phenyl)-ethyl]-piperazine] returned an EC50 in assay [3] of 3 nM. On the same count and under the same terms, as for `CCC(c1ccccc1)c1noc(N2CCN(CCc3cccc(OC)c3)CC2)n1` (centres unmarked) [Cmpd049, 5-(4-(3-Methoxyphenethyl)piperazin-1-yl)-3-(1-phenylpropyl)-1,2,4-oxadiazole], the figure is 10 nM. Still for that read-out and setting: for `Clc1ccc(CCN2CCN(c3nc(C4(c5ccccc5)CC4)no3)CC2)cc1` [Cmpd127, 5-(4-(4-Chlorophenethyl)piperazin-1-yl)-3-(1-phenylcyclopropyl)-1,2,4-oxadiazole] the value was 59 nM. On the same count and under the same terms, for `Clc1ccc(CCN2CCN(c3nc(-c4ccc(Cl)cc4)no3)CC2)cc1` [Cmpd019, 5-(4-(4-Chlorophenethyl)piperazin-1-yl)-3-(4-chlorophenyl)-1,2,4-oxadiazole] the value was 112 nM; for `Fc1ccc(-c2noc(N3CCN(CCc4ccc(Cl)cc4)CC3)n2)cc1F` [Cmpd036, 1-[2-(4-Chloro-phenyl)-ethyl]-4-[3-(3,4-difluoro-phenyl)-[1,2,4]oxadiazol-5-yl]-piperazine], 22 nM.
